Columns and labels:
both receptor types = settings: Tudhope et al., Eur. J. Pharmacol. (1994) 264, 317-323; cited from earlier work
[1] = target: T1, ^3 H-LTD4 binding to guinea-pig lung membranes (Cavia porcellus, UniProt Q2NNR5); assay: inhibition of ^3 H-LTD4 binding to guinea-pig lung membranes; settings: for Ki: read-out: pKi values for the inhibition of ^3 H-LTD4 binding to guinea-pig lung membranes (converted)
T1 construct: from tissue; host or cells: guinea-pig lung membranes
T1 sequence (Q2NNR5 1-340): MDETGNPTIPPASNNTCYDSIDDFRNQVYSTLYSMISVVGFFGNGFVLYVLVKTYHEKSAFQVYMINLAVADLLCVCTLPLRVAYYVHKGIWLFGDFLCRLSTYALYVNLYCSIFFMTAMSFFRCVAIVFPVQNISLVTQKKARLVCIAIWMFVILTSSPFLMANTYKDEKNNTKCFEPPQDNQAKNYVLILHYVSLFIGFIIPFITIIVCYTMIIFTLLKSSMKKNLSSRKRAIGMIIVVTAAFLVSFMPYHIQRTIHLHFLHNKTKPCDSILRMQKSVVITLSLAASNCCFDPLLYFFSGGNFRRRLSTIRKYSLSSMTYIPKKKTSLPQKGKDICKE
From the text: (§1) The representative preparations used to evaluate these compounds were the inhibition of ^3 H-LTD4 binding to guinea-pig lung membranes, as described in EP 494621, and the inhibition of both LTD4 -induced and LTC4 -induced contractions of guinea-pig tracheae as described by Tudhope et al., Eur. J. Pharmacol (1994) 264, 317-323.

[2] = target: T2, LTD4 -induced contractions of guinea-pig trachea (Cavia porcellus, UniProt Q2NNR5); assay: inhibition of LTD4-induced contractions of guinea-pig trachea; format: cell-based; settings: for Kb: read-out: pKB values for the inhibition of LTD4 -induced contractions of guinea-pig trachea (converted)
T2 construct: contractions of guinea-pig tracheae; from tissue; host or cells: guinea-pig trachea
T2 sequence (Q2NNR5 1-340): T1 sequence (Q2NNR5 1-340)
From the text: as §1

[3] = target: T3, LTC4 -induced contractions of guinea-pig trachea (Cavia porcellus, UniProt H0VW05); assay: inhibition of LTC4-induced contractions of guinea-pig trachea; format: cell-based; settings: read-out: pKB values for the inhibition of LTC4 -induced contractions of guinea-pig trachea (converted)
T3 construct: contractions of guinea-pig tracheae; from tissue; host or cells: guinea-pig trachea
T3 sequence (H0VW05 1-317): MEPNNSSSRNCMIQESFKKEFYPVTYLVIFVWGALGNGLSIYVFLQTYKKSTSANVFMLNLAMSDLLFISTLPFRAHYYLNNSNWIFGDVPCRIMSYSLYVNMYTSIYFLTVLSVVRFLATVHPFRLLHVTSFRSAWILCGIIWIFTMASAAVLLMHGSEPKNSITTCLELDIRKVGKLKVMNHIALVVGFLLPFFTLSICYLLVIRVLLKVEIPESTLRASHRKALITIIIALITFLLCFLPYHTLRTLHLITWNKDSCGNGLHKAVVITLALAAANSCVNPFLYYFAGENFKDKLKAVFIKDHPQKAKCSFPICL
From the text: as §1

SMILES | Ki [1] [nM] | Kb [2] [nM] | also measured
CCCCC/C=C\C\C=C/C=C/C=C/[C@@H](Sc1ccc(C(=O)O)cc1)[C@@H](O)CCCC(=O)O [Compound A] |  |  | activity at both receptor types (both receptor types): comparable activity at both receptor types
O=C(O)CCCNC(=O)c1cc(C(=O)O)ccc1OCCCc1ccc(OCCCCOc2ccccc2)cc1 [Example 4] | 794 | 126 | Kb [3]: 63.1 nM
O=C(O)CNC(=O)c1cc(C(=O)O)ccc1OCCCc1ccc(OCCCCOc2ccccc2)cc1 [Example 5] | 398 | 79.4 | Kb [3]: 1260 nM
O=C(O)CCNC(=O)c1cc(C(=O)O)ccc1OCCCc1ccc(OCCCCOc2ccccc2)cc1 [Example 6] | 251 | 79.4 | Kb [3]: 79.4 nM
O=C(O)CCCCNC(=O)c1cc(C(=O)O)ccc1OCCCc1ccc(OCCCCOc2ccccc2)cc1 [Example 7] |  |  | pKi values for the inhibition of ^3 H-LTD4 binding to guinea-pig lung membranes [1]: 5.7; pKB values for the inhibition of LTD4 -induced contractions of guinea-pig trachea [2]: 6.6
O=C(O)c1cccc(NC(=O)c2cc(C(=O)O)ccc2OCCCc2ccc(OCCCCOc3ccccc3)cc2)c1 [Example 8, N-(3-carboxyphenyl)-2-[3-{4-phenoxybutoxy}phenylpropoxy]-5-carboxybenzamide] |  | 631 | 
O=C(O)c1ccc(NC(=O)c2cc(C(=O)O)ccc2OCCCc2ccc(OCCCCOc3ccccc3)cc2)cc1 [Example 10] |  | 316 | Kb [3]: 126 nM
O=C(O)CCCC(=O)Nc1cc(C(=O)O)ccc1OCCCc1ccc(OCCCCOc2ccccc2)cc1 [Example 11] | 1580 | 251 | Kb [3]: 1000 nM
O=C(O)CCCCC(=O)Nc1cc(C(=O)O)ccc1OCCCc1ccc(OCCCCOc2ccccc2)cc1 [Example 12] | 1000 | 251 | Kb [3]: 501 nM
O=C(O)CCC(=O)Nc1cc(C(=O)O)ccc1OCCCc1ccc(OCCCCOc2ccccc2)cc1 [Example 13] | 1000 | 126 | 
O=C(O)CC(=O)Nc1cc(C(=O)O)ccc1OCCCc1ccc(OCCCCOc2ccccc2)cc1 [Example 14] | 316 | 251 | 
O=C(O)CCCC(=O)Nc1cc(C(=O)O)ccc1OCCc1ccc(OCCCCOc2ccccc2)cc1 [Example 15] |  |  | pKi values for the inhibition of ^3 H-LTD4 binding to guinea-pig lung membranes [1]: 5.3; pKB values for the inhibition of LTD4 -induced contractions of guinea-pig trachea [2]: 6.4
O=C(O)COc1cc(C(=O)O)ccc1NC(=O)CCc1ccc(OCCCCOc2ccccc2)cc1 [Example 16] | 50.1 | 50.1 | 
O=C(O)CCCOc1cc(C(=O)O)ccc1NC(=O)CCc1ccc(OCCCCOc2ccccc2)cc1 [Example 17] | 398 | 251 | 
O=C(O)CCCCCOc1cc(C(=O)O)ccc1NC(=O)CCc1ccc(OCCCCOc2ccccc2)cc1 [Example 18] | 631 | 79.4 | 
O=C(O)CCCSc1cc(C(=O)O)ccc1NC(=O)CCc1ccc(OCCCCOc2ccccc2)cc1 [Example 20] |  | 316 | 
O=C(O)CCCC(=O)c1cc(C(=O)O)ccc1NC(=O)CCc1ccc(OCCCCOc2ccccc2)cc1 [Example 21] |  | 31.6 | 
O=C(CCc1ccc(OCCCCOc2ccccc2)cc1)Nc1ccc(C(=O)O)cc1C(=O)O [Example 22] | 251 | 50.1 | 
O=C(CCc1ccc(OCCCCOc2ccccc2)cc1)Nc1cc(C(=O)O)cc(C(=O)O)c1 [Example 23] | 3160 | 1260 | 
O=C(CCCc1ccc(OCCCCOc2ccccc2)cc1)Nc1ccc(C(=O)O)cc1C(=O)O [Example 24, 3-carboxy-4-([4-{4-phenoxybutoxy}phenyl]-1-oxobutyl)aminobenzoic acid] | 501 | 50.1 | 
O=C(CCCc1ccc(OCCCCOc2ccccc2)cc1)Nc1cc(C(=O)O)cc(C(=O)O)c1 [Example 25, 3-carboxy-5-([4-{4-phenoxybutoxy}phenyl]-1-oxobutyl)aminobenzoic acid] | 1580 | 1580 | 
O=C(Cc1ccc(OCCCCOc2ccccc2)cc1)Nc1ccc(C(=O)O)cc1C(=O)O [Example 26] |  | 1260 | 
CS(=O)(=O)Nc1ccc(OCCCc2ccc(OCCCCOc3ccccc3)cc2)c(C(=O)O)c1 [Example 29, 2-(3-[4-{4-phenoxybutoxy}phenyl]propoxy)-5-(methylsulfonylamino)benzoic acid] | 2000 | 2000 | 
O=C(O)c1cc(NS(=O)(=O)c2ccccc2)ccc1OCCCc1ccc(OCCCCOc2ccccc2)cc1 [Example 30, 2-(3-[4-{4-phenoxybutoxy}phenyl]propoxy)-5-(phenylsulfonylamino)benzoic acid] | 5010 | 20000 | 
CS(=O)(=O)Nc1ccc(OCCCc2ccc(OCCCCOc3ccccc3)cc2)c(C(=O)NCCC(=O)O)c1 [Example 31, 4-aza-5-(5-[methylsulfonylamino]-2-(3-[4-{4-phenoxybutoxy}phenyl]-propoxy)phenyl)-5-oxopentanoic acid] | 316 | 3980 | 
O=C(O)CCC(=O)Nc1cc(C(=O)O)ccc1SCCc1ccc(OCCCCOc2ccccc2)cc1 [Example 32, 5-aza-5-(5-carboxy-2-(3-[4-{4-phenoxybutoxy}phenyl]-1-thiapropyl) -phenyl)-4-oxopentanoic acid] |  | 316 | 
O=C(O)CCCC(=O)Nc1cc(C(=O)O)ccc1SCCc1ccc(OCCCCOc2ccccc2)cc1 [Example 33] |  |  | pKB values for the inhibition of LTD4 -induced contractions of guinea-pig trachea [2]: 6.6
CS(=O)(=O)Nc1ccc(SCCc2ccc(OCCCCOc3ccccc3)cc2)c(C(=O)NCCC(=O)O)c1 [Example 34, 5-aza-5-(5-methylsulfonylamino]-2-(3-[4-{4-phenoxybutoxy}phenyl]-1-thiapropyl)phenyl-4-oxopentanoic acid] |  |  | pKi values for the inhibition of ^3 H-LTD4 binding to guinea-pig lung membranes [1]: 5.7; pKB values for the inhibition of LTD4 -induced contractions of guinea-pig trachea [2]: 5.6
O=C(O)CCCNC(=O)c1cc(C(=O)O)ccc1OCCCc1cccc(OCCCCOc2ccccc2)c1 [Example 36, 5-aza-6-(5-carboxy-2-(3-[3-{4-phenoxybutoxy}phenyl]propoxy)phenyl)-6-oxohexanoic acid] | 25100 |  | 

From US5872280A, “Leukotriene antagonistic benzoic acid derivatives” (Bayer Aktiengesellschaft, priority 1995, dated 1999)
